# Experimental data: patent US10426745B2, “Polymeric metformin and its use as a therapeutic agent and as a delivery vehicle” (The University of North Carolina at Chapel Hill, priority 2015, dated 2019)
# Tests used:
# [1] = system: luciferase plasmid; test: pDNA transfection efficiency with luciferase plasmid; assay type: cell-based
# Experimental: FIG. 10 depicts transfection efficiency of (A) L-PEI and L-PolyMet and (B) B-PEI and B-PolyMet at the indicated N/P ratios. Luciferase pDNA concentration was 0.5 μg/well in 96-well plate. Data are mean±S.D. (n=6 per group).
# [2] = system: H460 tumor; test: H460 xenograft tumor growth / antitumor activity; assay type: in vivo, mice; settings: vs PBS and LPH-PEI groups; IV 0.4 mg/kg body weight every other day
# Experimental: FIG. 6A depicts Metformin and PolyMet inhibit H460 tumor growth. PBS, metformin, LPH-PEI and LPH-PolyMet were administered intravenously every other day, and mice were sacrificed 24 hours after the final injection. In FIG. 6A, tumor volumes were measured every day; FIG. 6B depicts tumor weights were measured on day after final injection and compared with body weights to determine percentage of tumor burden; FIG. 6C depicts visual observations of the H460 tumor sizes in each treatment group at the end time point; (n=5 per group).
# Female nude female mice and female CD1 mice that were 6-8 weeks old were used in the studies. Female nude mice were purchased from National Cancer Institute (Bethesda, Md.) and bred by the Division of Laboratory Animal Medicine (DLAM) at University of North Carolina at Chapel Hill. CD1 mice were purchased from Charles River Laboratories (Morrisville, N.C.). To establish the xenograft models, 5×10^6 cells in 100 μL of PBS were injected subcutaneously into the right flank of the mice.
# Human NSCLC cells xenografts were used as previously described. H460 human lung cancer cells ([…]) were subcutaneously injected into the right flanks of female athymic nu/nu mice. […] Animal weight and tumor volumes were measured every other day. […]
# [3] = system: AMPKα; test: Western blot of tumor proteins: AMPKα phosphorylation; assay type: in vivo, mice; settings: H460 tumors, IV every other day
# Experimental: (§1) FIG. 7A depicts Metformin and PolyMet inhibition of tumor growth by activation of AMPK, inhibiting the mTOR pathway; FIG. 7B depicts inducing autophagy and apoptosis mechanisms. Mice bearing H460 tumors were given IV injections every other day and analysis of tumor proteins was prepared 24 h after the second injection. Cells under autophagy were stained by LC3b antibody (red) and apoptosis of cells was indicated by TUNEL assay (green). Nuclei are stained blue. The percentage denotes the average percentage of LC3b positive cells (red) and the percentage of TUNEL positive cells (green), respectively. Five randomly selected microscopic fields were quantitatively analyzed on ImageJ. Data are mean±S.D. (n=5 per group).
# (§2) H460 tumor-bearing mice were given IV injections every second day and mice were sacrificed 24 hours after the third injection. Protein per lane was separated by 4%-12% SDS-PAGE electrophoresis (Invitrogen) before being transferred to polyvinylidene difluoride (PVDF) membranes (Bio-Rad). The membranes were blocked for 1 h with 5% non fat dry milk (Bio-Rad) at room temperature and then incubated with antibodies overnight at 4° C. The membranes were washed 3 times and then incubated with a secondary antibody (1:4,000 dilution; Cell signal Inc.) at room temperature for 1 h. […]
# [4] = system: mTOR; test: Western blot of tumor proteins: p-mTOR/mTOR; assay type: in vivo, mice; settings: H460 tumors; compared to the PBS and LPH-PEI
# Experimental: as §1, §2
# [5] = system: LC3b; test: LC3b immunostaining of H460 tumors (autophagy); assay type: in vivo, mice; settings: vs other groups
# Experimental: as §1
# [6] = system: H460 tumor cells; test: TUNEL assay of in vivo tumor cell apoptosis; set-up: species or system mice; settings: H460 tumors after IV treatment
# Experimental: as §1
# FIG. 8 depicts in vitro and in vivo gene silencing effect of different LPH nanoparticles. […] Luciferase activities of cells were analyzed and normalized by protein. *p<0.05, **p<0.01, ***p<0.001. […] H460 tumor-bearing mice were injected intravenously every other day; FIG. 8B depicts tumor BCL2 protein levels after 2 injections were measured by western blot analysis; FIG. 8C depicts tumor volumes were measured every day; FIG. 8D depicts TUNEL staining in H460 tumor cells after treatment with siRNA in different formulations in vivo. […] Five randomly selected microscopic fields were quantitatively analyzed on ImageJ. […]
Compound,transfection efficiency [1],inhibition of cancer progression (tumor growth) [2],phosphorylation level of AMPKα relative to PBS group [3],reduction in p-mTOR/mTOR levels [4] [fold],LC3b-associated red fluorescence (autophagy) [5],percent of apoptotic (TUNEL-positive) cells [6] [%]
protamine,did not help,–,–,–,–,–
"CN(C)C(=N)NC(=N)N [Metformin, N,N-dimethylimidodicarbonimidic diamide]",–,significant inhibition,about 9 fold,2.3,higher,18.8
